# Patent US20140142127A1, “Stable Compositions of HMG-COA Reductase Inhibitors and Omega-3 Oils” (Almburg, LLC, priority 2012, published 2014)
# Experiment: Storage stability of statin Ca salt suspensions in omega-3 oils, statin and lactone quantified by HPLC
# Assay type: physicochemical
# Protocol: (§1) Atorvastatin Ca (At) in ethyl ester of EPA (97% purity from Equatec) was prepared as follows: The drug substance was weighed into a glass vessel containing a magnetic stir bar and the oil was then added by volume to make a 10 mg/ml suspension. The clear oil made an off-white suspension with the drug, which was uniformly dispersed by magnetic stirring. Each formulation also had 1% BHA via ethanol solution (1% of volume of the final suspension from a 100 mg/mL solution of BHA in anhydrous ethanol, resulting in 1 mg/mL BHA or 0.1% w/V). While stirring the suspensions were individually transferred by mass into 250 ul glass vial inserts to about 260 mg, which was essentially a complete fill. Vials were crimped with a teflon-backed seal and placed on stability stations: 25 C/60% RH, 40 C/75% RH and −20 C for reference. Samples were pulled at monthly intervals and prepared for HPLC analysis using a C18 column, samples were transferred, fully dissolved and diluted to 10.0 ml with dry DMF. At and corresponding lactone were quantified from HPLC chromatograms against standards of the At API. Integration was done using the Perkin Elmer software supplied with the HPLC system.
# as §1, with “omega-3 free fatty acid” for “ethyl ester of EPA (97% purity from Equatec)”
# as §1, with “Rosuvastatin” for “Atorvastatin”, “(Ro)” for “(At)”
# RosuvastatinCa (Ro) in omega-3 free fatty acid was prepared as follows: The drug substance was weighed into a glass vessel containing a magnetic stir bar and the oil was then added by volume to make a 10 mg/ml suspension. The clear oil made an off-white suspension with the drug, which was uniformly dispersed by magnetic stirring. […]
# [1] = Ethyl ester omega-3 oil, additive CaCO3, 25° C./60% RH, 3 months
# [2] = Ethyl ester omega-3 oil, additive CaCO3, 40° C./75% RH, 1 month
# [3] = Ethyl ester omega-3 oil, additive CaCO3, 40° C./75% RH, 3 months
# [4] = Ethyl ester omega-3 oil, additive CaCl2, 25° C./60% RH, 3 months
# [5] = Ethyl ester omega-3 oil, additive CaCl2, 40° C./75% RH, 1 month
# [6] = Ethyl ester omega-3 oil, additive CaCl2, 40° C./75% RH, 3 months
# [7] = Ethyl ester omega-3 oil, additive CaHPO4, 25° C./60% RH, 3 months
# [8] = Ethyl ester omega-3 oil, additive CaHPO4, 40° C./75% RH, 1 month
# [9] = Ethyl ester omega-3 oil, additive CaHPO4, 40° C./75% RH, 3 months
# [10] = Ethyl ester omega-3 oil, additive None, 40° C./75% RH, 1 month
# [11] = Free acid omega-3 oil, additive CaCO3, 25° C./60% RH, 3 months
# [12] = Free acid omega-3 oil, additive CaCO3, 40° C./75% RH, 1 month
# [13] = Free acid omega-3 oil, additive CaCO3, 40° C./75% RH, 3 months
# [14] = Free acid omega-3 oil, additive CaCl2, 25° C./60% RH, 3 months
# [15] = Free acid omega-3 oil, additive CaCl2, 40° C./75% RH, 1 month
# [16] = Free acid omega-3 oil, additive CaCl2, 40° C./75% RH, 3 months
# [17] = Free acid omega-3 oil, additive CaHPO4, 25° C./60% RH, 3 months
# [18] = Free acid omega-3 oil, additive CaHPO4, 40° C./75% RH, 1 month
# [19] = Free acid omega-3 oil, additive CaHPO4, 40° C./75% RH, 3 months
# [20] = Free acid omega-3 oil, additive None, 40° C./75% RH, 1 month
# [21] = Triglyceride omega-3 oil, additive None, 40° C./75% RH, 1 month
compound,measurement,setting,value
"CC(C)c1c(C(=O)Nc2ccccc2)c(-c2ccccc2)c(-c2ccc(F)cc2)n1CC[C@@H](O)C[C@@H](O)CC(=O)O [Atorvastatin, Atorvastatin Ca]",At Lactone,[1],0.26%
same,Atorvastatin,[1],110.7%
same,At Lactone,[2],0.34%
same,Atorvastatin,[2],97.6%
same,At Lactone,[3],1.87%
same,Atorvastatin,[3],111.8%
same,At Lactone,[4],0.35%
same,Atorvastatin,[4],98.2%
same,At Lactone,[5],0.06%
same,Atorvastatin,[5],103.2%
same,At Lactone,[6],0.48%
same,Atorvastatin,[6],97.1%
same,At Lactone,[7],0.38%
same,Atorvastatin,[7],98.0%
same,At Lactone,[8],0.21%
same,Atorvastatin,[8],100.9%
same,At Lactone,[9],4.80%
same,Atorvastatin,[9],90.8%
same,At Lactone,[10],0.18%
same,Atorvastatin,[10],98.0%
same,At Lactone,[11],24.6%
same,Atorvastatin,[11],77.3%
same,At Lactone,[12],1.5%
same,Atorvastatin,[12],101.8%
same,At Lactone,[13],35.2%
same,Atorvastatin,[13],76.4%
same,At Lactone,[14],18.6%
same,Atorvastatin,[14],84.2%
same,At Lactone,[15],13.5%
same,Atorvastatin,[15],87.3%
same,At Lactone,[16],19.8%
same,Atorvastatin,[16],90.7%
same,At Lactone,[17],32.2%
same,Atorvastatin,[17],80.9%
same,At Lactone,[18],13.6%
same,Atorvastatin,[18],99.5%
same,At Lactone,[19],25.2%
same,Atorvastatin,[19],92.0%
same,At Lactone,[20],75.6%
same,Atorvastatin,[20],22.8%
same,At Lactone,[21],4.6%
same,Atorvastatin,[21],85.3%
"CC(C)c1nc(N(C)S(C)(=O)=O)nc(-c2ccc(F)cc2)c1/C=C/[C@@H](O)C[C@@H](O)CC(=O)O [Rosuvastatin, Rosuvastatin Ca]",Ro Lactone,[1],0.31%
same,Rosuvastatin,[1],101.9%
same,Ro Lactone,[2],0.79%
same,Rosuvastatin,[2],79.8%
same,Ro Lactone,[3],5.56%
same,Rosuvastatin,[3],86.1%
same,Ro Lactone,[4],0.23%
same,Rosuvastatin,[4],110.4%
same,Ro Lactone,[5],0.09%
same,Rosuvastatin,[5],93.1%
same,Ro Lactone,[6],1.03%
same,Rosuvastatin,[6],108.8%
same,Ro Lactone,[7],0.26%
same,Rosuvastatin,[7],98.2%
same,Rosuvastatin,[8],96.2%
same,Ro Lactone,[9],9.75%
same,Rosuvastatin,[9],83.7%
same,Ro Lactone,[10],0.92%
same,Rosuvastatin,[10],95.0%
same,Ro Lactone,[11],1.0%
same,Rosuvastatin,[11],100.2%
same,Ro Lactone,[12],0.25%
same,Rosuvastatin,[12],105.4%
same,Ro Lactone,[13],0.83%
same,Rosuvastatin,[13],92.4%
same,Ro Lactone,[14],0.44%
same,Rosuvastatin,[14],101.9%
same,Ro Lactone,[15],0.28%
same,Rosuvastatin,[15],105.2%
same,Ro Lactone,[16],0.39%
same,Rosuvastatin,[16],98.7%
same,Ro Lactone,[17],0.74%
same,Rosuvastatin,[17],99.9%
same,Ro Lactone,[18],0.17%
same,Rosuvastatin,[18],99.5%
same,Ro Lactone,[19],0.69%
same,Rosuvastatin,[19],102.2%
same,Ro Lactone,[20],60.0%
same,Rosuvastatin,[20],39.1%
same,Ro Lactone,[21],2.5%
same,Rosuvastatin,[21],100.6%
